These results are taken from patent US9534059B2, “TIKI inhibitors” (Children's Medical Center Corporation, priority 2012, dated 2017).

Holding throughout (type): in vivo
Series [1] has as its target T1, Tiki1 (Xenopus tropicalis, UniProt F6PTN1).
T1 construct: Thus the endogenous Tiki1 in the Organizer acts in both Wnt-producing and Wnt-responding cells; endogenous in cells; host or cells: Xenopus embryos (dorsal blastomeres / organizer)
T1 sequence (F6PTN1 24-480): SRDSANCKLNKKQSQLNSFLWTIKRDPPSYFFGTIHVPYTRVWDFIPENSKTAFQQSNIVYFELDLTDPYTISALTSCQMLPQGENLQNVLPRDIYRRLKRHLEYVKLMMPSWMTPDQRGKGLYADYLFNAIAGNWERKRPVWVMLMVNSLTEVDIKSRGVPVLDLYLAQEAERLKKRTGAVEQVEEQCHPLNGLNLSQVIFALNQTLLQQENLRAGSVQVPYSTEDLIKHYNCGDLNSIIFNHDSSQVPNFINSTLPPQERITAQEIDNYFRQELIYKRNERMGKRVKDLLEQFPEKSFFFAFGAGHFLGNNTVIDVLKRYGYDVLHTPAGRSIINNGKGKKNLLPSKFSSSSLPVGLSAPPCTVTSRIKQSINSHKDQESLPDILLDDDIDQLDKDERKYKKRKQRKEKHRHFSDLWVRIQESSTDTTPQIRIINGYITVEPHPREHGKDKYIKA
In words: Anterior neural marker expression at stage 16 in MO-injected embryos, whole mount in situ hybridization (FIG. 3I). On the procedure: (I) Tiki1 is required for anterior neural patterning. 20 ng of control MO or Tiki1MO plus fluorescein dextran (FLD, as a lineage tracer) were injected into one dorsal blastomere at the 8-cell stage. 50 pg of HA*Tiki1 mRNA were injected into the dorsal-animal blastomeres at the 4-cell stage in rescue experiments. Injected embryos were collected at stage 16 and subjected for whole mount in situ hybridization. Expression of forebrain markers BF1 and Otx2 (not shown) and the midbrain marker Ent was reduced in the Tiki1MO-injected half and was rescued by HA*Tiki1.
Procedures for embryo manipulation, reverse transcription PCR and in situ hybridization were performed as previously described (Tamai et al., 2000). The arrayed Xenopus tropicalis full length cDNAs (Voigt et al., 2005) were used for the screening as performed previously (Kato et al., 2002). cDNA pools (in the CS107 vector) that contain 96 independent clones were transcribed in vitro using SP6 polymerase, and the resulting mRNA pools were injected into the dorsal side of the embryo at 4-cell stage at the dose of 10 ng RNA/embryo. Injected embryos were scored at stage 30-31 for enlarged or diminished anterior development. The positive pools were divided into smaller pools and the same process was repeated till a single cDNA was identified.
The following morpholino oligonucleotides were used: Tiki1 MO: 5′-[…]-3′ (SEQ ID NO:33); standard control MO: 5′-[…]-3′ (SEQ ID NO:34) (Gene Tools, LLC). RT-PCR primers for XTiki1: Forward, 5′-[…]-3′(SEQ ID NO:35), Reverse, 5′-[…]-3′(SEQ ID NO:36); human TIKI1: Forward, 5′-[…]-3′(SEQ ID NO:37), Reverse, 5′-[…]-3′(SEQ ID NO:38); human TIKI2: Forward, 5′-[…]-3′(SEQ ID NO:39), Reverse, 5′-[…]-3′(SEQ ID NO:40).
The fact that Tiki1 is specifically expressed in, and is required for function of, the head organizer implies that Tiki1 has a role in anterior neural patterning. Tiki1MO were injected with fluorescein dextran (FLD, as a lineage tracer) into one dorsal-animal blastomere at the 8-cell stage and analyzed expression of anterior neural markers at stage 16. Tiki1MO suppressed, in the injected half of the embryo, the expression of forebrain marker BF1 and Otx2 (FIG. 3I and Table 3). […] HA*Tiki1 mRNA injection rescued the expression of BF1, Otx2, and Ent in Tiki1MO-injected embryos (FIG. 3I and Table 3).

In series [2] the target is T1, Tiki1. Description: Tiki1MO loss-of-function phenotype scoring in embryos. The following applies: 20 ng into two dorsal blastomeres of 8-cell stage embryos. As for the experimental part: 20 ng of control MO, Tiki1MO or Tiki1MO together with 50 pg of HA-Tiki1 mRNA was injected into two dorsal blastomeres at the 8-cell stage and the phenotype was scored at stage 42. Lateral view (left) and dorso-anterior view (right) are shown. Con, control.
(C) Statistical data of the Tiki1MO phenotype.
20 ng of Tiki1MO were injected into two dorsal blastomeres of 8-cell stage embryos. […] Co-injection of HA*Tiki1 mRNA rescued Tiki1MO phenotypes (FIGS. 3B and 3C). Supporting a role of Tiki1 in Wnt inhibition during head formation, Dkk1 mRNA injection also rescued Tiki1MO anterior deficiency phenotypes (FIG. 3E).

For series [3], the target named is T1, Tiki1. In words: S01234-luciferase Wnt-responsive reporter assay in embryos with Tiki1MO knockdown. The following applies: 20 ng MO in Xwnt8-producing or Xwnt8-responding cells. On the procedure: (C) The endogenous Tiki1 acts in Wnt-producing cells. Tiki1MO or control MO (20 ng) was co-injected with CS2+Xwnt8 DNA (40 pg) into a single dorsal blastomere at the 8-cell stage, while 501234-Luciferase or S0-luciferase (100 pg) plus TK-Renilla (1.25 pg) reporter DNAs were injected into a neighboring dorsal blastomere.
(D) The endogenous Tiki1 acts in Wnt-responding cells. S01234-luciferase or S0-luciferease and TK-Renilla reporter DNAs were co-injected with Tiki1MO or control MO into a single dorsal blastomere, while CS2+Xwnt8 was injected into a neighboring dorsal blastomere. Luciferase readings were normalized to Renilla.
The same question was addressed complementarily via Tiki1MO knockdown in dorsal blastomeres whose progenies expresses Tiki1 endogenously. At the 8-cell stage, an Xwnt8 expression plasmid (which transcribes Xwnt8 after mid-blastula transition) plus the Tiki1MO (or control MO) were co-injected into a single blastomere (i.e., to knock down Tiki1 in Xwnt8-producing cells), and the S01234-luciferase plasmid was injected into the neighboring blastomere. Alternatively the Xwnt8 plasmid was injected into a single blastomere, and the 501234-luciferase reporter plus Tiki1MO or control MO was co-injected into the neighboring blastomere (i.e., to knock down Tiki1 in Xwnt8-responding cells).
A general note: In a reporter assay the amount or activity of a reporter protein is the signal.

For the substance “Tiki1 MO: morpholino antisense oligonucleotide against Tiki1, 5′-CCAAATGATTACCATCATAGCTCAG-3′ (SEQ ID NO:33) (all phosphorodiamidate morpholino (PMO))”, in the series with Tiki1 [1] (gene BF1, stage 16), the “Whole embryos displaying change in gene expression: BF1 Absent, Percentage (%)” value stood at 63%; the “Whole embryos displaying change in gene expression: BF1 NC (No Change), Percentage (%)” value amounted to 14%; the “Whole embryos displaying change in gene expression: BF1 Reduced, Percentage (%)” value was 23%; the “Whole embryos displaying change in gene expression: BF1 increased, Percentage (%)” value is recorded as 0%. For the same substance, in the series with Tiki1 [1] (gene En-2, stage 16), the “Whole embryos displaying change in gene expression: En-2 Absent, Percentage (%)” value is given as 40%; the “Whole embryos displaying change in gene expression: En-2 NC (No Change), Percentage (%)” value was 35%; the “Whole embryos displaying change in gene expression: En-2 Reduced, Percentage (%)” value is 25%; the “Whole embryos displaying change in gene expression: En-2 increased, Percentage (%)” value turned out to be 0%. Further, in the series with Tiki1 [1] (gene HoxB9, stage 16), the “Whole embryos displaying change in gene expression: HoxB9 Absent, Percentage (%)” value is recorded as 0%; the “Whole embryos displaying change in gene expression: HoxB9 NC (No Change), Percentage (%)” value is 100%; the “Whole embryos displaying change in gene expression: HoxB9 Reduced, Percentage (%)” value is 0%; the “Whole embryos displaying change in gene expression: HoxB9 increased, Percentage (%)” value was 0%. For the same substance, in the series with Tiki1 [1] (gene Otx2, stage 16), the “Whole embryos displaying change in gene expression: Otx2 Absent, Percentage (%)” value is 35%; the “Whole embryos displaying change in gene expression: Otx2 NC (No Change), Percentage (%)” value amounted to 35%; the “Whole embryos displaying change in gene expression: Otx2 Reduced, Percentage (%)” value is reported as 30%; the “Whole embryos displaying change in gene expression: Otx2 increased, Percentage (%)” value is 0%. Besides, the “Injected embryos that developed anterior defects” value in the series with Tiki1 [2] was “roughly 50%”. In the series with Tiki1 [3], the “XWnt8 response of S01234-luciferase reporter” value is listed as “enhanced”.
